Experimental data taken from US12583873B2, “Amino acid mineral complex having immunopotentiating activity and composition for foods, pharmaceuticals, or feeds comprising same” (priority 2018, dated 2026).
Values joined by “and” are separate entries in the source; they are usually repeats but may differ in a detail not shown here. Identical values can stand only once. “Also recorded” adds a separate entry of the source. Like-named read-outs stand apart in the source and are kept apart here.

Experiments:
[1] = pig, in vivo
[2] = tested on: immunoglobulin (IgG) in serum; conditions: pig, in vivo
[3] = tested on: Foot-and-mouth disease antibody (FMDV type 0); conditions: pig, in vivo
[4] = pig, in vivo; remark: listed apart in the source
[5] = tested on: H1N1 virus; assay: Body weight change of H1N1-infected mice; assay type: in vivo; conditions: H1N1-infected ICR mice; for Body weight, Start point (day 0): baseline before oral 20 μg/kg/day; for Body weight as compared to the negative control group / Body weight, End point (day 5): oral 20 μg/kg/day for 5 days; for Body weight, End point (day 5): start point 100.0
[6] = tested on: H1N1 virus; assay: H1N1 virus content in lung tissue of mice; assay type: in vivo; conditions: oral 20 μg/kg/day for 5 days; for Tissues virus titers: lung tissue of H1N1-infected ICR mice

With `[O-2].[Zn+2]` [CON 1, zinc oxide] as the molecule, how does the “Body weight, End time” value [1] read?
Its value is 53.62b.

And the “Body weight, Start time” value [1]?
Its value is 22.56.

And the IgG [2]?
Its IgG is 472b mg/dL.

What about the “Antibody titer (PI)” value [3] of the same molecule?
The value was 47.38b.

And the Positive rate [3]?
Its Positive rate is 50.

And the “Positive rate for the foot-and-mouth disease antibody” value [3]?
Its value is 50%.

And the Zinc [4]?
Its Zinc is 100c μg/dL.

What does the source list for `O=S(=O)([O-])[O-].[Zn+2]` [CON 2, zinc sulfate]?
Body weight, End time [1]: 53.74b; Body weight, Start time [1]: 22.56; IgG [2]: 466b mg/dL; Antibody titer (PI) [3]: 47.52b; Positive rate [3]: 50; Positive rate for the foot-and-mouth disease antibody [3]: 50%; Body weight, Start point (day 0) [5]: 100.0; Body weight as compared to the negative control group [5]: decreased body weight; Body weight, End point (day 5) [5]: 99.9a; Tissues virus titers [6]: 4.4b Log10 TCID50; Zinc [4]: 98c μg/dL

What does the source list for `N[C@@H](CC(=O)[O-])C(=O)[O-].O.[Zn+2]` [Example 1-2, zinc aspartate hydrate]?
Body weight as compared to CON 1 and CON 2 [1]: slight increase in body weight; Body weight, Start time [1]: 22.56 ^; IgG ([2]; hydrate): 504ab mg/dL and 546a mg/dL; Immunoglobulin content in blood as compared to CON 1 and CON 2 ([2]; hydrate): significant increase; also recorded: distinct, although not significant, increase; Positive rate for the foot-and-mouth disease antibody [3]: 100%; Production of the foot-and-mouth disease antibody as compared to CON 1 and CON 2 ([3]; hydrate): increased slightly; also recorded: Significant increase; Body weight, Start point (day 0) [5]: 100.0; Body weight as compared to the negative control group [5]: did not show significant increase in body weight; Body weight, End point (day 5) [5]: 106.8b; Virus content in the lung tissue ([6]; H1N1-infected ICR mice): decreased significantly; Tissues virus titers [6]: 2.1a Log10 TCID50; Zinc content in blood as compared to CON 1 and CON 2 [4]: increased significantly

For “zinc-aspartic acid complex [Comparative Example 3]”, which “Body weight as compared to CON 1 and CON 2” value [1] is on record?
Its value is “slight increase in body weight”.

And the “Body weight, End time” value [1]?
The value was 54.55a.

And the “Body weight, Start time” value [1]?
The value was 22.56 ^.

What about the IgG [2] of the same molecule?
The IgG was 489b ^ mg/dL.

And the “Immunoglobulin content in blood as compared to CON 1 and CON 2” value [2]?
The value was “not significantly different”.

And the “Antibody titer (PI)” value [3]?
Its value is 54.45b.

And the Positive rate [3]?
The Positive rate was 75.

And the “Positive rate for the foot-and-mouth disease antibody” value [3]?
Its value is 75%.

And the “Production of the foot-and-mouth disease antibody as compared to CON 1 and CON 2” value [3]?
Its value is “increased slightly”.

And the “Body weight, Start point (day 0)” value [5]?
Its value is 100.0 ^.

What about the “Body weight as compared to the negative control group” value [5] of the same molecule?
Its value is “did not show significant increase in body weight”.

And the “Body weight, End point (day 5)” value [5]?
Its value is 103.7ab.

What about the Tissues virus titers [6] of the same molecule?
Its Tissues virus titers is 3.9b Log10 TCID50.

With “zinc-aspartic acid complex [Example 1-1]” as the molecule, how does the “Body weight as compared to CON 1 and CON 2” value [1] read?
Its value is “slight increase in body weight”.

What about the “Body weight, End time” value [1] of the same molecule?
Its value is 54.43ab.

What about the “Body weight, Start time” value [1] of the same molecule?
The value was 22.56 ^.

And the IgG [2]?
Its IgG is 480b mg/dL.

And the “Immunoglobulin content in blood as compared to CON 1 and CON 2” value [2]?
The value was “not significantly different”.

What about the “Antibody titer (PI)” value [3] of the same molecule?
The value was 51.88b.

And the Positive rate [3]?
Its Positive rate is 75.

And the “Positive rate for the foot-and-mouth disease antibody” value [3]?
Its value is 75%.

What about the “Production of the foot-and-mouth disease antibody as compared to CON 1 and CON 2” value [3] of the same molecule?
The value was “increased slightly”.

And the “Body weight, Start point (day 0)” value [5]?
The value was 100.0 ^.

And the “Body weight as compared to the negative control group” value [5]?
Its value is “did not show significant increase in body weight”.

What about the “Body weight, End point (day 5)” value [5] of the same molecule?
Its value is 104.8ab.

What about the Tissues virus titers [6] of the same molecule?
Its Tissues virus titers is 4.1b Log10 TCID50.
